In US20020028938A1, “Prostaglandin endoperoxide H synthase biosynthesis inhibitors” (priority 1997, published 2002):

Columns and labels:
[1] = target: T1, human amnionic whole cell cyclooxygenase-2 (WISH cells) (Homo sapiens, UniProt P35354); test: IL-1β induced PGE2 production in WISH cells; assay type: cell-based; conditions: for IC50: read-out: Wish IC50 (parenthetical value); for inhibition at 0.1 µM / inhibition at 1 µM: read-out: Wish % Inhib. at Dose
T1 construct: endogenous in cells; host or cells: human amnionic WISH cells, induced with IL-1beta
T1 sequence (P35354 18-604): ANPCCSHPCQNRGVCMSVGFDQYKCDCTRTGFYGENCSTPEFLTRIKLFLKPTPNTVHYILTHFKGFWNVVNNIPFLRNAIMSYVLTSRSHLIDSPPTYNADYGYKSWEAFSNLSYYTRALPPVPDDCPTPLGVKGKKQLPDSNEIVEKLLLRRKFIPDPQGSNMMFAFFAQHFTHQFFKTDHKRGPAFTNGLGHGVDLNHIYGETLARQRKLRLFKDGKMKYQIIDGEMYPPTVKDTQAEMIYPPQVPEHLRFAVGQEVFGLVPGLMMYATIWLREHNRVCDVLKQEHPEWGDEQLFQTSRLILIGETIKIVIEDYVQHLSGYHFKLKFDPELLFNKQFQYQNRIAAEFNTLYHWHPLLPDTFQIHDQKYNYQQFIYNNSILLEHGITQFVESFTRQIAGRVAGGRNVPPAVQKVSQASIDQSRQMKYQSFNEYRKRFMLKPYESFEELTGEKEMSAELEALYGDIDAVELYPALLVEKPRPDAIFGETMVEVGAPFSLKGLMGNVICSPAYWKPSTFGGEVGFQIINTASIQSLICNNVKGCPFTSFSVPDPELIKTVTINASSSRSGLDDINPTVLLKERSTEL
Experimental: EIA reagents for prostaglandin determination were purchased from Perseptive Diagnostics, (Cambridge, Mass.). Prostaglandin E2 (PGE2) levels in lavage fluids were determined after the samples were dried under nitrogen and reconstituted with assay buffer. PGE2 levels in enzyme assays or cell culture media were measured against standards prepared in the same milieu. The immunoassays were conducted as recommended by the manufacturer. The EIA was conducted in 96 well microtiter plates (Nunc Roskilde, Denmark) and optical density was measured using a microplate reader (Vmax, Molecular Devices Corp., Menlo Park, Calif.).
Human amnionic WISH cells were grown to 80% confluence in 48 well plates. Following removal of the growth medium and two washings with Geys Balanced Salt Solutn, 5 ng IL-1β /ml (UBI, Lake Placid, N.Y.) was added to the cells with or without test compound in DMSO (0.01% v/v) in Neuman-Tytell Serumless Medium (GIBCO, Grand Island, N.Y.).

[2] = target: T2, recombinant human Cox-2 (r-hu Cox-2) (Homo sapiens, UniProt P35354); test: Recombinant human PGHS-2 enzyme assay (RHUCX2); assay type: biochemical; conditions: for IC50: read-out: RHUCX2 IC50 (parenthetical value); for inhibition at 0.01 µM / inhibition at 0.1 µM / inhibition at 1 µM / inhibition at 10 µM: read-out: RHUCX2 % Inh. at Dose
T2 construct: made in house; host or cells: baculovirus/Sf9 insect cells (microsomes)
T2 sequence (P35354 18-604): T1 sequence (P35354 18-604)
Summary of the method: (§1)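 Prostaglandin biosynthesis was measured as PGE2 output, read by enzyme immunoassay after a 2.5-minute room-temperature reaction stopped with HCl and neutralized with NaOH.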

[3] = target: T3, Human Whole Platelet Cyclooxygenase-1 (Homo sapiens, UniProt P23219); test: Human Whole Platelet Cyclooxygenase-1 assay (HWPX); assay type: cell-based; conditions: for IC50: read-out: HWPX IC50 (parenthetical value)
T3 construct: from tissue; host or cells: human blood: isolated platelets (A4) or heparinised whole blood (A9)
T3 sequence (P23219 24-599): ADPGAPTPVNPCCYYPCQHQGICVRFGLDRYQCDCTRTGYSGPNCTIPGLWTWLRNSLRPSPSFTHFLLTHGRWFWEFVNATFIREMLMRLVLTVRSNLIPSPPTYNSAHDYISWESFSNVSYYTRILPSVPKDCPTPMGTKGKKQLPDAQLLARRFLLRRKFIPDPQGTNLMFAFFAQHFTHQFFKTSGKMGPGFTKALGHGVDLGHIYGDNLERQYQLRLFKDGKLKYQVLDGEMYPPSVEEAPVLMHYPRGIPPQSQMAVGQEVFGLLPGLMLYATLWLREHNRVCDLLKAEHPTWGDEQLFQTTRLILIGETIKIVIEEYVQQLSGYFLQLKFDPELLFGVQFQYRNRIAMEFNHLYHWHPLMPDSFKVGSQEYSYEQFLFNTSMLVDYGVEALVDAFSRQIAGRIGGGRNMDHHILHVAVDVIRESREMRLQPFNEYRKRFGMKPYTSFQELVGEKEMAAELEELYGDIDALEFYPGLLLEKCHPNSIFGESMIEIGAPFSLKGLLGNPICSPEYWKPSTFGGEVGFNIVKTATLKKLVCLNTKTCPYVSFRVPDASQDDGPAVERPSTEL
Experimental: Blood from normal healthy volunteers is collected into tubes containing ACD (acid citrate dextrose) as the anticoagulant. This blood is centrifuged at 175×g to prepare platelet rich plasma. The platelet rich plasma is then centrifuged at 100×g to pellet the white blood cells, leaving the platelets in the supernatant. The supernatant is layered on a cushion of 0.7 mL of 10% bovine serum albumin in Tyrodes solution (Gibco; Grand Island, N.Y.) and then centrifuged at 1000×g. The resulting supernatant from this centrifuigation is then removed and 11 mL of Tyrodes solution is added to the remaining pellet of platelets. The platelets are then aliquoted at 120 μl into a 96 well plate. Experimental compounds are added and allowed to pre-incubate for 10 minutes. At the end of this pre-incubation period, the calcium ionophore A23187 is added to a final concentration of 8.8 μM and the incubation is continued for ten minutes. The reaction is stopped by adding cold 6 mM EDTA, the incubation mixture is centrifuged at 220×g, and the supernatants are then analyzed for thromboxane using a commercial kit from Cayman Chemical (Ann Arbor, Mich.

[4] = target: T4, recombinant human Cox-1 (r-hu Cox1) (Homo sapiens, UniProt P23219); test: Recombinant human PGHS-1 enzyme assay (RHUCX1); assay type: biochemical; conditions: 100 μM; read-out: RHUCX1 % Inh. at Dose
T4 construct: made in house; host or cells: baculovirus/Sf9 insect cells (microsomes)
T4 sequence (P23219 24-599): as above
Summary of the method: as §1

[5] = read-out: HWPX % Inhib. at Dose

Structure (SMILES) | IC50 [1] [nM] | melting point [°C] | inhibition at 0.1 µM [2] [%] | inhibition at 100 µM [4] [%] | inhibition at 1 µM [2] [%] | other results
CC1(COc2c(-c3ccc(S(C)(=O)=O)cc3)cnn(CC(F)(F)F)c2=O)CC1 [Example 279] | 391 | 98 to 99 | 31 | 0 | 60 | –
CC(C)CCCOc1c(-c2ccc(S(C)(=O)=O)cc2)cnn(-c2ccc(F)cc2)c1=O [Example 414, 2-(4-Fluorophenyl)-4-(4-methylpentyloxy)-5-[4-(methylsulfonyl)phenyl]-3(2H)-pyridazinone] | – | 123 to 125 | 76 | 0 | 87 | inhibition at 0.1 µM ([1]; 0.1 μM): 46%; inhibition at 1 µM [1]: 54%
CC(C)CSCc1c(-c2ccc(S(C)(=O)=O)cc2)cnn(-c2ccc(F)cc2)c1=O [Example 198, 2-(4-Fluorophenyl)-4-(2-methylpropylthiomethyl)-5-[4-(methylsulfonyl)phenyl]-3(2H)-pyridazinone] | 184 | 45 to 60 | 23 | 10 | 68 | –
CS(=O)(=O)c1ccc(-c2cnn(Cc3ccccc3)c(=O)c2Oc2ccc(F)cc2)cc1 [Example 75] | – | 188 to 190 | – | – | – | inhibition at 3 µM ([3]; 3 μM, read-out: HWPX % Inhib. at Dose): 0%; inhibition at 10 µM [3, 5]: 84%
CS(=O)(=O)c1ccc(-c2cnn(CC(F)(F)F)c(=O)c2SC2CCCCC2)cc1 [Example 287, 2-(2,2,2-Trifluoroethyl)-4-(cyclohexylthio)-5-[4-(methylsulfonyl)phenyl]-3(2H)-pyridazinone] | 160 | 165 to 167 | 25 | 0 | 79 | inhibition at 10 µM [2]: 93%
CCC(CC)COc1c(-c2ccc(S(C)(=O)=O)cc2)cnn(-c2ccc(F)cc2)c1=O [Example 430, 2-(4-Fluorophenyl)-4-(2-ethyl-1-butoxy)-5-[4-(methylsulfonyl)phenyl]-3(2H)-pyridazinone] | 54 | 107 to 108 | – | – | – | inhibition at 10 µM [3, 5]: 34%; inhibition at 100 µM [3, 5]: 89%
Cc1cc(-c2c(-c3ccc(S(C)(=O)=O)cc3)cnn(-c3cccc(Cl)c3)c2=O)ccc1F [Example 244, 2-(3-Chlorophenyl)-4-(4-fluoro-3-methylphenyl)-5-[4-(methylsulfonyl)phenyl]-3(2H)-pyridazinone] | 19 | 228 to 230 | – | – | – | IC50 [3]: 3670 nM
CS(=O)(=O)c1ccc(-c2cnn(-c3cccc(Cl)c3)c(=O)c2Sc2ccccn2)cc1 [Example 358, 2-(3-Chlorophenyl)-4-(2-pyridylthio)-5-[4-(methylsulfonyl)phenyl]-3(2H)-pyridazinone] | – | 110 to 114 | – | 30 | – | inhibition at 0.1 µM ([1]; 0.1 μM): 0%; inhibition at 1 µM [1]: 69%; IC50 [2]: 2450 nM
CS(=O)(=O)c1ccc(-c2cnn(-c3cccc(Cl)c3)c(=O)c2Cc2cccc(F)c2)cc1 [Example 241, 2-(3-Chlorophenyl)-4-(3-fluorobenzyl)-5-[4-(methylsulfonyl)phenyl]-3(2H)-pridazinone] | 47.4 | 142 to 143 | – | 0 | – | IC50 [2]: 28 nM
CS(=O)(=O)c1ccc(-c2cnn(Cc3ccccc3)c(=O)c2-c2ccc(Cl)s2)cc1 [Example 320, 2-Benzyl-4-(5-chloro-2-thienyl)-5-[4-(methylsulfonyl)phenyl]-3(2H)-pyrdazinone] | – | – | – | – | – | Wish % Inhib. at Dose (μM) ([1]; 0.01 μM): 15 @ .01%; Wish % Inhib. at Dose (μM) ([1]; 0.1 μM): 78 @ .1%; HWPX % Inhib. at Dose (μM) ([3]; 3 μM): 29 @ 3%
CN(C)c1cccc(Oc2c(-c3ccc(S(C)(=O)=O)cc3)cnn(-c3cccc(Cl)c3)c2=O)c1 [Example 344, 2-(3-Chlorophenyl)-4-[3-(dimethylamino)phenoxy]-5-[4-(methylsulfonyl)phenyl]-3(2H)-pyridazinone] | 100 | 191 to 193 | – | 16 | – | IC50 [2]: 897 nM

Continued, in another order:

IC50 [1] [nM] | melting point [°C] | inhibition at 0.1 µM [2] [%] | inhibition at 100 µM [4] [%] | inhibition at 1 µM [2] [%] | Structure (SMILES) | other results
40 | – | – | – | – | Cc1ccc(-c2c(-c3ccc(S(C)(=O)=O)cc3)cnn(Cc3ccccc3)c2=O)cc1C [Example 325, 2-Benzyl-4-(3,4-dimethylphenl)-5-[4-(methylsulfonyl)phenyl]-3(2H)-pyridazinone] | IC50 [2]: 199 nM; IC50 [3]: 2300 nM
41 | 168 to 170 | – | – | – | Cc1cc(-n2ncc(-c3ccc(S(C)(=O)=O)cc3)c(-c3ccc(F)cc3)c2=O)ccc1F [Example 189, 2-(4-Fluoro-3-methylphenyl)-4-(4-fluorophenyl)-5-[4-(methylsulfonyl)phenyl]-3(2H)-pyridazinone] | inhibition at 100 µM [3, 5]: 31%
42 | 214 to 215 | – | – | – | CC(c1ccc(F)c(F)c1)n1ncc(-c2ccc(S(N)(=O)=O)cc2)c(-c2ccc(F)cc2)c1=O (stereo not drawn) [Example 148, 2-(α-Methyl-3,4-difluorobenzyl)-4-(4-fluorophenyl)-5-[4-(aminosulfonlI)phenyl]-3(2H)-pyridazinone] | inhibition at 0.3 µM ([3]; 0.3 μM, read-out: HWPX % Inhib. at Dose): 51%
44 | 102 to 104 | 87 | 0 | – | CC(C)CCc1c(-c2ccc(S(C)(=O)=O)c(F)c2)cnn(-c2ccc(F)c(Cl)c2)c1=O [Example 252, 2-(3-Chloro-4-fluorophenyl)-4-(3-methylbutyl)-5-[3-fluoro-4-(methylsulfonyl)phenyl]-3(2H)-pyridazinone] | inhibition at 0.01 µM [2]: 26%
29 | 180 to 183 | – | 0 | – | NS(=O)(=O)c1ccc(-c2cnn(CC=C(F)F)c(=O)c2-c2ccc(F)cc2)cc1F [Example 408] | IC50 [2]: 279 nM
420 | 135 to 137 | 90 | 55 | – | COC(Cn1ncc(-c2ccc(S(C)(=O)=O)cc2)c(-c2ccc(F)cc2)c1=O)c1ccccc1 (centres unmarked) [Example 442, 2-(2-Methoxy-2-phenylethyl)-4-(4-fluorophenyl)-5-[4-(methylsulfonyl)phenyl]-3(2H)-pyridazinone] | inhibition at 0.01 µM [2]: 56%
– | 157 to 159 | 61 | 0 | 74 | CS(=O)(=O)c1ccc(-c2cnn(-c3ccc(F)c(F)c3)c(=O)c2Cc2ccc(F)cc2)cc1 [Example 171, 2-(3,4-Difluorophenyl)-4-(4-fluorobenzyl)-5-[4-(methylsulfonyl)phenyl]-3(2H)-pyridazinone] | inhibition at 0.1 µM ([1]; 0.1 μM): 56%; inhibition at 1 µM [1]: 90%; inhibition at 10 µM [2]: 82%
20 | 161 to 163 | 65 | 13 | 98 | CS(=O)(=O)c1ccc(-c2cnn(Cc3ccccc3)c(=O)c2-c2ccc(Cl)c(Cl)c2)cc1 [Example 65, 2-Benzyl-4-(3,4-dichlorophenyl)-5-[4-(methylsulfonyl)phenyl]-3(2H)-pyridazinone] | –
